Results reported in article PMC8752738, “A propolis-derived small molecule ameliorates metabolic syndrome in obese mice by targeting the CREB/CRTC2 transcriptional complex” (Nature Communications, 2022).
Several values for one entry are separate records, joined by “and”; a condition that tells them apart may be missing. Equal entries are not always repeated. Entries after “also recorded” stand apart in the source; their conditions may differ.

Legend:
primary hepatocytes = experiment: Glucose production assay; assay type: cell-based, mouse
Procedure: Primary hepatocytes were exposed to propolis, APC or vehicle control for 1-h prior to 4-h stimulation with glucagon, and then incubated in no-glucose no-phenol-red DMEM (Sigma) supplied with 2 mM sodium pyruvate (Sigma) and 10 mM sodium lactate (Sigma) for 8-h. Glucose levels in the media were detected using a GO kit (Sigma).

[1] = biological target: T1, endogenous CREB / CRTC2 interaction (Mus musculus, UniProt Q01147); experiment: Co-immunoprecipitation by anti-CRTC2 antibody, primary hepatocytes: CREB; assay type: cell-based
T1 construct: endogenous in cells; host or cells: mouse primary hepatocytes
Procedure: Fig. 2 APC blocks interaction between CREB and CRTC2. a Analysis of GST-CREB immunoprecipitated with overexpressed FLAG-CRTC2 from the lysates of HEK293T cells. APC (10 μM) was added to the culture media for 1 h and the following IP mixture. The relative gray density of FLAG in GST-pull-down fraction is shown as a bar graph (bottom). One of three independent experiments is presented (top, n = 3). Data are represented as mean ± SEM); P values were determined by one-way ANOVA followed Dunnett’s multiple comparisons test. b Analysis of HA-CRTC2 immunoprecipitated with endogenous CREB from primary hepatocyte lysates. […] Data are represented as mean ± SEM; P values were determined by one-way ANOVA followed Dunnett’s multiple comparisons test. c Immunoblotting analysis of endogenous CREB, CRTC2, and CBP interaction by an anti-CRTC2 antibody from the lysate of primary hepatocytes. […] Data are represented as mean ± SEM; P values were determined by two-way ANOVA followed Bonferroni’s multiple comparisons test. d Immunoblotting analysis of protein GST-CREB recovered HIS-CRTC2-S171A proteins purified from E. coli. […] Data are represented as mean ± SEM; P values were determined by one-way ANOVA followed Dunnett’s multiple comparisons test (compared with APC = 0). […]

CREB-CRTC2 interaction = biological target: T2, CREB-CRTC2 interaction (Homo sapiens, UniProt P16220); experiment: CREB–CRTC2 mammalian two-hybrid assay (GAL4-Luc reporter); assay type: cell-based; set-up: CREB/CRTC2 -luc activity %: concentration or dose not given beside the values; conditions: for relative Gal4-luc activity %: Fig 3b replicates
T2 construct: expressed in transfected cells; host or cells: HEK293T

[2] = biological target: T3, GST-CREB / HIS-CRTC2-S171A interaction (Homo sapiens, UniProt P16220); experiment: In vitro pull-down with purified GST-CREB and HIS-CRTC2-S171A; assay type: biochemical; conditions: for Relative HIS/GST in GST-pull down fraction: Fig 2d replicates
T3 construct: made in house; host or cells: E. coli
Description: To further confirm whether APC disrupts the protein association between CREB and CRTC2, we performed GST-pull-down assays in which GST-CREB beads were used to immunoprecipitated FLAG-tagged CRTC2 proteins that were expressed in HEK293T cells. As expected, APC attenuated the amounts of FLAG-CRTC2 proteins recovered by GST-CREB beads from HEK293T cell lysates (Fig. 2a). […] In contrast, APC had little effect on the association of GST-CREB with HA-P300 (Supplementary Fig. 2a), as well as the interaction between endogenous CRTC2 and CBP proteins (Fig. 2c). Moreover, the interactions of CREB and the isoforms CRTC1 and CRTC3 were also attenuated by APC in overexpression HEK293T cells (Supplementary Fig. 2b, c).
Fig. 2 APC blocks interaction between CREB and CRTC2. a Analysis of GST-CREB immunoprecipitated with overexpressed FLAG-CRTC2 from the lysates of HEK293T cells. APC (10 μM) was added to the culture media for 1 h and the following IP mixture. The relative gray density of FLAG in GST-pull-down fraction is shown as a bar graph (bottom). One of three independent experiments is presented (top, n = 3). Data are represented as mean ± SEM); P values were determined by one-way ANOVA followed Dunnett’s multiple comparisons test. b Analysis of HA-CRTC2 immunoprecipitated with endogenous CREB from primary hepatocyte lysates. APC (10 μM) was added to the culture media for 1-h before 30-min of stimulation with glucagon (Gluc, 100 nM) and the following IP mixture as indicated. Top panel presents one of three independent experiments, and the relative gray density of HA in CREB-IP-faction is shown as a bar graph (bottom, n = 3). Data are represented as mean ± SEM; P values were determined by one-way ANOVA followed Dunnett’s multiple comparisons test. c Immunoblotting analysis of endogenous CREB, CRTC2, and CBP interaction by an anti-CRTC2 antibody from the lysate of primary hepatocytes. APC (10 μM) was added to the culture media for 1-h before 30-min stimulation with glucagon. Related CREB and CBP normalized by CRTC2, respectively, in CRTC2-IP fractions. The top panel presents one of three independent experiments, and the relative gray density of CREB and CBP normalized to CRTC2 in the CRTC2-IP-faction is shown as a bar graph (bottom, n = 3). Data are represented as mean ± SEM; P values were determined by two-way ANOVA followed Bonferroni’s multiple comparisons test. d Immunoblotting analysis of protein GST-CREB recovered HIS-CRTC2-S171A proteins purified from E. coli. The addition of APC (5, 10, or 50 μM) in pull-down mixtures is indicated. […] Data are represented as mean ± SEM; P values were determined by one-way ANOVA followed Dunnett’s multiple comparisons test (compared with APC = 0).

T1 sequence (Q01147 whole entry): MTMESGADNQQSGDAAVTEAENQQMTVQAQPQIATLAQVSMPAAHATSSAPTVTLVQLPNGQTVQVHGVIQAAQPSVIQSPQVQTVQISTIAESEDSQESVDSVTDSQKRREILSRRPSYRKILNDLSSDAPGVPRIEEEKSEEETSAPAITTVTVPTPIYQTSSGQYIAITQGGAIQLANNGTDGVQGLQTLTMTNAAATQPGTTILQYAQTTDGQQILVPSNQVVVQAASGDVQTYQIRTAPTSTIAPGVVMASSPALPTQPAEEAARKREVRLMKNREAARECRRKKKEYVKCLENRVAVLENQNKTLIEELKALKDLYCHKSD
T3 sequence (P16220 whole entry, stated change not applied): as the sequence (Q01147 whole entry) above, with D8E counted along it
T2 sequence (P16220 whole entry, the tested form may be a part): as the sequence (Q01147 whole entry) above, with D8E counted along it

With `CC(C)=CCc1cc(C=CC(=O)O)cc(CC=C(C)C)c1O` [APC, 3,5-diprenyl-4-hydroxycinnamic acid] the “glucose output and Pgc-1α, Pck1 expression in CRTC2-null primary hepatocytes” value (primary hepatocytes; glucagon, APC 10 μM) was “unable to further reduce”, the “glucose output induced by glucagon” value (primary hepatocytes; primary hepatocytes, APC 5 μM) was “reduced” and the “CREB/CRTC2 band gray signal, CRTC2-COIP fraction” value ([1]; Fig 2c replicates, APC+ (10 μM)) was 0.6304 and 0.625 and 0.6291. The “endogenous CREB co-immunoprecipitated by anti-CRTC2 antibody” value ([1]; primary hepatocyte lysates, APC 10 μM) was “significantly decreased”, the remaining activity at 1000 µM (CREB-CRTC2 interaction; 16 h, Figure 9b, Log10(M) -3, single replicates, read-out: Gal4-LUC reporter activiry, %) was 0.439% and the remaining activity at 100 µM (CREB-CRTC2 interaction; 16 h, Figure 9b, Log10(M) -4, single replicates, read-out: Gal4-LUC reporter activiry, %) was 0.257%. The remaining activity at 1 µM (CREB-CRTC2 interaction; 16 h, Figure 9b, Log10(M) -6, single replicates, read-out: Gal4-LUC reporter activiry, %) was 36.2%, the remaining activity at 0.1 µM (CREB-CRTC2 interaction; 16 h, Figure 9b, Log10(M) -7, single replicates, read-out: Gal4-LUC reporter activiry, %) was 71.6% and the remaining activity at 0.01 µM (CREB-CRTC2 interaction; 16 h, Figure 9b, Log10(M) -8, single replicates, read-out: Gal4-LUC reporter activiry, %) was 92.8%. The remaining activity at 0.001 µM (CREB-CRTC2 interaction; 16 h, Figure 9b, Log10(M) -9, single replicates, read-out: Gal4-LUC reporter activiry, %) was 74.9%, the remaining activity at 0.0001 µM (CREB-CRTC2 interaction; 16 h, Figure 9b, Log10(M) -10, single replicates, read-out: Gal4-LUC reporter activiry, %) was 102% and the “relative Gal4-luc activity %” value (CREB-CRTC2 interaction; APC Log10(M) -3) was 0.3266% and 0.2637% and 0.3128%. For the same compound, the “relative Gal4-luc activity %” value (CREB-CRTC2 interaction; APC Log10(M) -4) was 10.2018% and 10.3248% and 10.277%, the “relative Gal4-luc activity %” value (CREB-CRTC2 interaction; APC Log10(M) -5) was 61.3194% and 69.9978% and 76.9726% and the “relative Gal4-luc activity %” value (CREB-CRTC2 interaction; APC Log10(M) -6) was 65.67% and 82.3932% and 92.7658%. The “relative Gal4-luc activity %” value (CREB-CRTC2 interaction; APC Log10(M) -7) was 64.5839% and 85.9224% and 107.618%, the “relative Gal4-luc activity %” value (CREB-CRTC2 interaction; APC Log10(M) -8) was 99.4977% and 99.5841% and 100.918% and the “relative Gal4-luc activity %” value (CREB-CRTC2 interaction; APC Log10(M) -9) was 107.021% and 111.522% and 103.779%. For the same compound, the “Relative Gal4-LUC activity, single replicates” value (CREB-CRTC2 interaction; Figure 1f, CREB-CRTC2 two-hybrid assay, DMSO control about 100, listed as P3) was 21.4874 and 38.8421 and 27.0437, the “reporter activity of CREB–CRTC2 two-hybrid assay” value (CREB-CRTC2 interaction; HEK293T, isolated compound 25 μM, listed as P3) was “significantly inhibited; also recorded: most potent” and the “Related Gal4-luc %” value (CREB-CRTC2 interaction; Supp. Fig.10 a, individual replicates, Ctrl about 97) was 42.290% and 38.150% and 46.110% and 51.003%. For the same compound, the “Related Gal4-luc %, group mean (Test details, Mean 2)” value (CREB-CRTC2 interaction; Supp. Fig.10 a, mean of n=4, CTRL mean 96.58) was 44.39%, the “CREB/CRTC2 -luc activity %” value (CREB-CRTC2 interaction; Supp. Fig.10 b, individual replicates, Ctrl about 100) was 51.481% and 56.411% and 65.126% and the IC50 (CREB-CRTC2 interaction; cell-based two-hybrid assay, HEK293T cells, read-out: IC50 for disrupting CREB–CRTC2 interaction) was ~24.5 µM and 24.5 µM. For the same compound, the “Relative HIS/GST in GST-pull down fraction” value ([2]; APC 5 uM) was 0.8055 and 0.8618 and 0.7881, the “Relative HIS/GST in GST-pull down fraction” value ([2]; APC 10 uM) was 0.4842 and 0.3120 and 0.3223 and the “Relative HIS/GST in GST-pull down fraction” value ([2]; APC 50 uM) was 0.1707 and 0.1125 and 0.1021. The “HIS-CRTC2-S171A recovered by GST-CREB” value ([2]; purified proteins, APC 5, 10, 50 μM, dose-dependent) was “significantly diminished”.
